Results on 30 molecules are retold here after patent publication US10351547B2, “Somatostatin modulators and uses thereof” (priority 2016, dated 2019).

Like-named read-outs stand apart in the source and are kept apart here.

This experiment has as its target human SSTR2 (Homo sapiens (Human), UniProt P30874). Description: Human SSTR2 intracellular cAMP functional assay for agonists (HTRF). The format is cell-based. The procedure, abridged:
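Cells bearing human SSTR2 exposed to compound for 20 minutes at 37 °C; after lysis, cAMP measured by time-resolved fluorescence (HTRF) and converted via a standard curve. EC50 calculated from cAMP versus compound concentration.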

The mark [1] stands for this setting: CHO-K1 cells stably expressing human SSTR2, NKH477-stimulated cAMP, read-out: EC50 (inhibition of cAMP activities via human SST2R).

The EC50 is the concentration at which the effect is half-maximal.

Sequence of human SSTR2 (P30874 whole entry): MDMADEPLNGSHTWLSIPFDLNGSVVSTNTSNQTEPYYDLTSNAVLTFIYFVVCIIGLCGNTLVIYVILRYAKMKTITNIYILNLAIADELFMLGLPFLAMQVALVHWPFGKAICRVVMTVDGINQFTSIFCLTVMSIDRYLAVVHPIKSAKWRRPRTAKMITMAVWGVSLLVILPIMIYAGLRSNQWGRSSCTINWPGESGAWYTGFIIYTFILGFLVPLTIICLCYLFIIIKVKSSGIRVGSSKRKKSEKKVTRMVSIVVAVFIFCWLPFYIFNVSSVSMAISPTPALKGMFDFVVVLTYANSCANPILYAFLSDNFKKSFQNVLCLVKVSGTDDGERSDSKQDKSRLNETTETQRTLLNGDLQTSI

Consider `Cc1cc(Cl)cc(-c2cnc3ccc(-c4cccc(C#N)c4O)cc3c2N2CC(CN)C2)c1` [2-13, 3-{4-[3-(aminomethyl)azetidin-1-yl]-3-(3-chloro-5-methylphenyl)quinolin-6-yl}-2-hydroxybenzonitrile], for which the EC50 lay within 10 to 100 nM.
On the same count and under the same terms, the result for `Cc1cc(F)cc(-c2cnc3ccc(-c4cc(F)cc(C(N)=O)c4)cc3c2N2CC(C)(CN)C2)c1` [2-14, 3-{4-[3-(aminomethyl)-3-methylazetidin-1-yl]-3-(3-fluoro-5-methylphenyl)quinolin-6-yl}-5-fluorobenzamide] reads 10 to 100 nM.
In the case of `Cc1cc(Cl)cc(-c2cnc3ccc(-c4cc(F)cc(C#N)c4O)cc3c2N2CC(C)(CN)C2)c1` [2-15, 3-{4-[3-(aminomethyl)-3-methylazetidin-1-yl]-3-(3-chloro-5-methylphenyl)quinolin-6-yl}-5-fluoro-2-hydroxybenzonitrile], the EC50 under setting [1] was 100 to 1000 nM.
On the same count and under the same terms, for `Cc1cc(F)cc(-c2cnc3ccc(-c4cc(F)cc(C#N)c4O)cc3c2N2CCC(N)CC2)c1` [2-16, 3-[4-(4-aminopiperidin-1-yl)-3-(3-fluoro-5-methylphenyl)quinolin-6-yl]-5-fluoro-2-hydroxybenzonitrile] the value was less than 10 nM.
Still for that read-out and setting: the result for `Cc1cc(F)cc(-c2cnc3ccc(-c4cc(F)cc(C#N)c4O)cc3c2N2CC(CN)C2)c1` [2-17, 3-{4-[3-(aminomethyl)azetidin-1-yl]-3-(3-fluoro-5-methylphenyl)quinolin-6-yl}-5-fluoro-2-hydroxybenzonitrile] reads 10 to 100 nM.
Take `CCNCC1CN(c2c(-c3cc(C)cc(F)c3)cnc3ccc(-c4cc(F)cc(C#N)c4O)cc23)C1` [2-18, 3-(4-{3-[(ethylamino)methyl]azetidin-1-yl}-3-(3-fluoro-5-methylphenyl)quinolin-6-yl)-5-fluoro-2-hydroxybenzonitrile]: the EC50 was less than 10 nM.
On the same count and under the same terms, for `N#Cc1cc(F)cc(-c2ccc3ncc(-c4cc(F)cc(Cl)c4)c(N4CC(CN)C4)c3c2)c1O` [2-21, 3-{4-[3-(aminomethyl)azetidin-1-yl]-3-(3-chloro-5-fluorophenyl)quinolin-6-yl}-5-fluoro-2-hydroxybenzonitrile] the value was 10 to 100 nM; for `Cc1cc(Cl)cc(-c2cnc3ccc(-c4cc(F)cc(C#N)c4O)cc3c2N2CC(CN)C2)c1` [2-22, 3-{4-[3-(aminomethyl)azetidin-1-yl]-3-(3-chloro-5-methylphenyl)quinolin-6-yl}-5-fluoro-2-hydroxybenzonitrile], 10 to 100 nM; for `N#Cc1cc(F)cc(-c2ccc3ncc(-c4cc(F)cc(F)c4)c(N4CC(CN)C4)c3c2)c1O` [2-23, 3-{4-[3-(aminomethyl)azetidin-1-yl]-3-(3,5-difluorophenyl)quinolin-6-yl}-5-fluoro-2-hydroxybenzonitrile], 100 to 1000 nM.
For the molecule `Cc1cc(F)cc(-c2cnc3ccc(-c4cc(F)cc(C#N)c4O)cc3c2N2CC(CNCCF)C2)c1` [2-24, 5-fluoro-3-[3-(3-fluoro-5-methylphenyl)-4-(3-{[(2-fluoroethyl)amino]methyl}azetidin-1-yl)quinolin-6-yl]-2-hydroxybenzonitrile], the EC50 under setting [1] is less than 10 nM.
On the same count and under the same terms, the result for `Cc1cc(F)cc(-c2cnc3ccc(-c4cc(F)cc(C#N)c4O)cc3c2N2CC(CNC(C)C)C2)c1` [2-25, 5-fluoro-3-[3-(3-fluoro-5-methylphenyl)-4-(3-{[(propan-2-yl)amino]methyl}azetidin-1-yl)quinolin-6-yl]-2-hydroxybenzonitrile] reads less than 10 nM; that for `CCNCC1CN(c2c(-c3cc(C)cc(F)c3)cnc3ccc(-c4cc(F)cc(C(N)=O)c4)cc23)C1` [2-26, 3-(4-{3-[(ethylamino)methyl]azetidin-1-yl}-3-(3-fluoro-5-methylphenyl)quinolin-6-yl)-5-fluorobenzamide], less than 10 nM; that for `COCCNCC1CN(c2c(-c3cc(C)cc(F)c3)cnc3ccc(-c4cc(F)cc(C#N)c4O)cc23)C1` [2-27, 3-[3-(3-fluoro-5-methylphenyl)-4-(3-{[(2-methoxyethyl)amino]methyl}azetidin-1-yl)quinolin-6-yl]-5-fluoro-2-hydroxybenzonitrile], less than 10 nM.
Turning to `Cc1cc(F)cc(-c2cnc3ccc(-c4cc(F)cc(C#N)c4O)cc3c2N2CC(CNCCCF)C2)c1` [2-28, 5-fluoro-3-[3-(3-fluoro-5-methylphenyl)-4-(3-{[(3-fluoropropyl)amino]methyl}azetidin-1-yl)quinolin-6-yl]-2-hydroxybenzonitrile], the EC50 under setting [1] was less than 10 nM.
The same measure, in the same setting: the result for `Cc1cc(F)cc(-c2cnc3ccc(-c4cc(F)cc(C#N)c4O)cc3c2N2CC(CNC3CC3)C2)c1` [2-29, 3-[4-(3-cyclopropylaminomethyl-azetidin-1-yl)-3-(3-fluoro-5-methyl-phenyl)-quinolin-6-yl]-5-fluoro-2-hydroxy-benzonitrile] reads less than 10 nM; that for `Cc1cc(F)cc(-c2cnc3ccc(-c4cc(F)cc(C#N)c4O)cc3c2N2CC(CN3CCCC3)C2)c1` [2-30, 5-fluoro-3-[3-(3-fluoro-5-methyl-phenyl)-4-(3-pyrrolidin-1-ylmethyl-azetidin-1-yl)-quinolin-6-yl]-2-hydroxy-benzonitrile], less than 10 nM; that for `CCCNCC1CN(c2c(-c3cc(C)cc(F)c3)cnc3ccc(-c4cc(F)cc(C#N)c4O)cc23)C1` [2-31, 5-fluoro-3-[3-(3-fluoro-5-methylphenyl)-4-{3-[(propylamino)methyl]azetidin-1-yl}quinolin-6-yl]-2-hydroxybenzonitrile], less than 10 nM.
The molecule `Cc1cc(F)cc(-c2cnc3ccc(-c4cc(F)cc(C#N)c4O)cc3c2N2CC(CNC3COC3)C2)c1` [2-33, 5-fluoro-3-[3-(3-fluoro-5-methylphenyl)-4-(3-{[(oxetan-3-yl)amino]methyl}azetidin-1-yl)quinolin-6-yl]-2-hydroxybenzonitrile] had an EC50 of 10 to 100 nM.
`Cc1cc(F)cc(-c2cnc3ccc(-c4cc(F)cc(C#N)c4O)cc3c2N2CC(CN3CCOCC3)C2)c1` [2-35, 5-fluoro-3-[3-(3-fluoro-5-methylphenyl)-4-[3-(morpholin-4-ylmethyl)azetidin-1-yl]quinolin-6-yl]-2-hydroxybenzonitrile] gave an EC50 of 100 to 1000 nM.
As to `CCNCC1CN(c2c(-c3cc(C)cc(F)c3)cnc3ccc(-c4c(C)ccc(F)c4O)cc23)C1` [2-38, 2-(4-{3-[(ethylamino)methyl]azetidin-1-yl}-3-(3-fluoro-5-methylphenyl)quinolin-6-yl)-6-fluoro-3-methylphenol], the half-maximal effective concentration (EC50) under setting [1] was less than 10 nM.
`COCC(C)(C)NCC1CN(c2c(-c3cc(C)cc(F)c3)cnc3ccc(-c4cc(F)cc(C#N)c4O)cc23)C1` [2-39, 5-fluoro-3-[3-(3-fluoro-5-methylphenyl)-4-(3-{[(1-methoxy-2-methylpropan-2-yl)amino]methyl}azetidin-1-yl)quinolin-6-yl]-2-hydroxybenzonitrile] registered a concentration giving a half-maximal response (EC50) of 100 to 1000 nM.
On to `Cc1cc(F)cc(-c2cnc3ccc(-c4cc(F)cc(C#N)c4O)cc3c2N2CC(CNCC(C)(C)O)C2)c1` [2-40, 5-fluoro-3-[3-(3-fluoro-5-methylphenyl)-4-(3-{[(2-hydroxy-2-methylpropyl)amino]methyl}azetidin-1-yl)quinolin-6-yl]-2-hydroxybenzonitrile], for which the EC50 under setting [1] is less than 10 nM.
The molecule `CCC(CO)NCC1CN(c2c(-c3cc(C)cc(F)c3)cnc3ccc(-c4cc(F)cc(C#N)c4O)cc23)C1` (stereo not drawn) [2-41, 5-fluoro-3-[3-(3-fluoro-5-methylphenyl)-4-(3-{[(1-hydroxybutan-2-yl)amino]methyl}azetidin-1-yl)quinolin-6-yl]-2-hydroxybenzonitrile] had an EC50 of 10 to 100 nM.
On to `CCCNCC1CN(c2c(-c3cc(C)cc(F)c3)cnc3ccc(-c4cccc(C#N)c4O)cc23)C1` [2-42, 3-[3-(3-fluoro-5-methylphenyl)-4-{3-[(propylamino)methyl]azetidin-1-yl}quinolin-6-yl]-2-hydroxybenzonitrile], for which the EC50 under setting [1] is less than 10 nM.
Same read-out and setting: the result for `Cc1cc(F)cc(-c2cnc3ccc(-c4cc(F)cc(C#N)c4O)cc3c2N2CC(CNCCO)C2)c1` [2-43, 5-fluoro-3-[3-(3-fluoro-5-methylphenyl)-4-(3-{[(2-hydroxyethyl)amino]methyl}azetidin-1-yl)quinolin-6-yl]-2-hydroxybenzonitrile] reads less than 10 nM.
`CCN(CCO)CC1CN(c2c(-c3cc(C)cc(F)c3)cnc3ccc(-c4cc(F)cc(C#N)c4O)cc23)C1` [2-44, 3-[4-(3-{[ethyl(2-hydroxyethyl)amino]methyl}azetidin-1-yl)-3-(3-fluoro-5-methylphenyl)quinolin-6-yl]-5-fluoro-2-hydroxybenzonitrile] came in with an EC50 of 100 to 1000 nM.
As for `Cc1cc(F)cc(-c2cnc3ccc(-c4cc(F)cc(C#N)c4O)cc3c2N2CC(CNC3CCOC3)C2)c1` (stereo not drawn) [2-45, 5-fluoro-3-[3-(3-fluoro-5-methylphenyl)-4-(3-{[(oxolan-3-yl)amino]methyl}azetidin-1-yl)quinolin-6-yl]-2-hydroxybenzonitrile], the EC50 was 10 to 100 nM.
Consider `CCCNCC1CN(c2c(-c3cc(C)cc(F)c3)cnc3ccc(-c4c(F)ccc(F)c4O)cc23)C1` [2-46, 3,6-difluoro-2-[3-(3-fluoro-5-methylphenyl)-4-{3-[(propylamino)methyl]azetidin-1-yl}quinolin-6-yl]phenol], for which the EC50 under setting [1] was less than 10 nM.
In the case of `Cc1cc(F)cc(-c2cnc3ccc(-c4cc(F)cc(C#N)c4O)cc3c2N2CC(CN3CCC(F)(F)C3)C2)c1` [2-47, 3-(4-{3-[(3,3-difluoropyrrolidin-1-yl)methyl]azetidin-1-yl}-3-(3-fluoro-5-methylphenyl)quinolin-6-yl)-5-fluoro-2-hydroxybenzonitrile], the EC50 fell in the range of 100 to 1000 nM.
`Cc1cc(F)cc(-c2cnc3ccc(-c4cc(F)cc(C#N)c4O)cc3c2N2CC(CN3CC[C@@H](F)C3)C2)c1` [2-48, 5-fluoro-3-[3-(3-fluoro-5-methylphenyl)-4-(3-{[(3R)-3-fluoropyrrolidin-1-yl]methyl}azetidin-1-yl)quinolin-6-yl]-2-hydroxybenzonitrile]: under setting [1], the EC50 is less than 10 nM.
